The record followed here is patent publication US20130012432A1, “Peptides for Treatment of Obesity” (Novo Nordisk A/S, priority 2010, published 2013).

Values after ≈ are worked out from the molar mass of the structure shown. Positions of bridges follow the written chain, without caps; N, C: chain ends. Non-standard residues stand in square brackets, D forms with d. Residues, ends and D or L forms follow the SMILES beside them. Groups on a side chain read outwards from the residue. *: point of attachment. Palmitoyl(16-(5-tetrazolyl)) = O=C(CCCCCCCCCCCCCCCc1nnn[nH]1)*; Lys(CH2CO2H)2 = N[C@@H](CCCCN(CC(=O)O)CC(=O)O)C(=O)O; C18 diacid = O=C(O)CCCCCCCCCCCCCCCCC(=O)*; C17 diacid = O=C(O)CCCCCCCCCCCCCCCC(=O)*; Orn = NCCC[C@H](N)C(=O)O; AEEA = NCCOCCOCC(=O)O Where only a bound is given, the exact number is not on record here.

The target in one series is MC1 receptor (Homo sapiens, UniProt Q01726). Briefly: biochemical. On the procedure: Assay (IV)—Melanocortin Receptor 1 (MC1) Binding Assay
The MC1 receptor binding assay was performed on BHK cell membranes stably expressing the MC1 receptor. The assay was performed in a total volume of 250 μl: 25 μl of ^125NDP-α-MSH (22 pM in final concentration), 25 μl of test compound/control and 200 μl of cell membrane (25 μg/ml). Test compounds were dissolved in DMSO. Radioactively labeled ligand, membranes and test compounds were diluted in buffer: 25 mM HEPES, pH 7.4, 0.1 mM CaCl2, 1 mM MgSO4, 1 mM EDTA, 0.1% HSA and 0.005% Tween™ 20. Alternatively, HSA may be substituted with ovalbumin. The samples were incubated at 30° C. for 90 min. in Costar round-bottom microtiter plates. Incubation was terminated by filtration on a Packard harvester filtermate. Rapid filtration through Packard Unifilter-96 GF/B filters pre-treated with polyetylenimine (PerkinElmer 6005277). The filters were washed with ice-cold 0.9% NaCl 8-10 times. The plates were air-dried at app. 55° C. for 30 min, and 50 μl Microscint 0 (Packard, cat. No. 6013616) was added to each well. The plates were counted in a Topcounter (1 min/well).
The data were analysed by non-linear regression analysis of binding curves, using the Windows™ program GraphPad™ Prism (GraphPad Software, USA).

The nature of a further series: physchem. The protocol:
From a stock solution in vehicle, either H2O or 10 mM phosphate, containing 1 mg (as weighed) compound per ml, 8-11 aliquots are withdrawn and pH-adjusted individually with HCl/NaOH, to cover the whole pH range.

Usually Ki stands for a measure of affinity in units of concentration, obtained from inhibition or displacement. By solubility is commonly meant how much of the substance goes into solution per volume. A low value points to a poorly soluble substance.

MC1 receptor, sequence (Q01726 whole entry): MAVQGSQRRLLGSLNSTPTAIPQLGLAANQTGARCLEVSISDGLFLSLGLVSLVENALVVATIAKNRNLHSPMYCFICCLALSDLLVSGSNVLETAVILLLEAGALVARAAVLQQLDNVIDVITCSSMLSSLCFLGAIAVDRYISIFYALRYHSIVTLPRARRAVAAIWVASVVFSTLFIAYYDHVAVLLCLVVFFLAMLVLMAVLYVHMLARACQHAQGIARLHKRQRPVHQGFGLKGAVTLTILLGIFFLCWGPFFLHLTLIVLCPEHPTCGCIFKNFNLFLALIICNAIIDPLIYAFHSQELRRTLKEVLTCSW

`CC(=O)N[C@H]1CCCCNC(=O)CC[C@@H](C(=O)N2CCC[C@H]2C(=O)N2CCC[C@H]2C(=O)N[C@@H](CCCNC(=N)N)C(=O)N[C@@H](CC(=O)O)C(=O)N[C@@H](CCCCN(CC(=O)O)CC(=O)O)C(=O)N[C@@H](CCCCNC(=O)COCCOCCNC(=O)CCCCCCCCCCCCCCCc2nnn[nH]2)C(N)=O)NC(=O)[C@H](Cc2c[nH]c3ccccc23)NC(=O)[C@H](CCCNC(=N)N)NC(=O)[C@@H](Cc2ccccc2)NC(=O)[C@H](Cc2c[nH]cn2)NC1=O` [Example 21, Ac-c[Lys-His-D-Phe-Arg-Trp-Glu]-Pro-Pro-Arg-Asp-Lys(biscarboxymethyl)-Lys[(2-{2-[16-(tetrazol-5-yl)hexadecanoylamino]ethoxy}ethoxy)acetyl]-NH2] (Ac-KH[dF]RWEPPRD[Lys(CH2CO2H)2]K([AEEA-Palmitoyl(16-(5-tetrazolyl))])-NH2; lactam 1-6): the Ki at MC1 receptor was greater than 10 µM. The solubility in “physchem” (pH 5.3, Solubility Conc.) was found to be 38 µM (≈ 84.2 µg/mL); in “physchem” (pH 6, Solubility Conc.) it was 31 µM (≈ 68.7 µg/mL); in the series “physchem” (pH 6.3, Solubility Conc.) it was 36 µM (≈ 79.7 µg/mL); in “physchem” (pH 6.6, Solubility Conc.), 47 µM (≈ 104 µg/mL); in “physchem” (pH 7.2, Solubility Conc.) it was 90 µM (≈ 199 µg/mL); in “physchem” (pH 7.4, Solubility Conc.), 175 µM (≈ 388 µg/mL). The solubility in “physchem” (pH 7.5, Solubility Conc.) stood at 276 µM (≈ 611 µg/mL); in “physchem” (pH 7.7, Solubility Conc.), 360 µM (≈ 797 µg/mL); in the series “physchem” (pH 7.9, Solubility Conc.) it was 366 µM (≈ 811 µg/mL).

As to `CC(=O)N[C@H]1CCCNC(=O)CC[C@@H](C(=O)N2CCC[C@H]2C(=O)N2CCC[C@H]2C(=O)N[C@@H](Cc2c[nH]cn2)C(=O)N[C@@H](CCC(=O)O)C(=O)N[C@@H](CCCCN(CC(=O)O)CC(=O)O)C(=O)N[C@@H](CCCCNC(=O)COCCOCCNC(=O)CCCCCCCCCCCCCCCC(=O)O)C(N)=O)NC(=O)[C@H](Cc2c[nH]c3ccccc23)NC(=O)[C@H](CCCNC(=N)N)NC(=O)[C@@H](Cc2ccccc2)NC(=O)[C@H](Cc2c[nH]cn2)NC1=O` [Example 22, Ac-c[Orn-His-D-Phe-Arg-Trp-Glu]-Pro-Pro-His-Glu-Lys(biscarboxymethyl)-Lys({2-[2-(16-carboxyhexadecanoylamino)ethoxy]ethoxy}acetyl)-NH2] (Ac-[Orn]H[dF]RWEPPHE[Lys(CH2CO2H)2]K([AEEA-C17 diacid])-NH2; lactam 1-6), the Ki on MC1 receptor is greater than 10 µM. Further, the solubility in “physchem” (pH 6.1, Solubility Conc.) was found to be 134 µM (≈ 291 µg/mL); in the series “physchem” (pH 6.3, Solubility Conc.), 173 µM (≈ 376 µg/mL); in “physchem” (pH 6.7, Solubility Conc.), 284 µM (≈ 617 µg/mL); in “physchem” (pH 6.8, Solubility Conc.), 444 µM (≈ 964 µg/mL); in the series “physchem” (pH 6.9, Solubility Conc.), 443 µM (≈ 962 µg/mL); in “physchem” (pH 7.2, Solubility Conc.) it was 447 µM (≈ 971 µg/mL). The solubility in “physchem” (pH 7.4, Solubility Conc.) came out at 438 µM (≈ 951 µg/mL); in “physchem” (pH 8, Solubility Conc.) it was 468 µM (≈ 1020 µg/mL).

Turning to `CC(=O)N[C@H]1CCC(=O)NCCC[C@@H](C(=O)N2CCC[C@H]2C(=O)N2CCC[C@H]2C(=O)N[C@@H](CC(=O)O)C(=O)N[C@@H](CCCCN(CC(=O)O)CC(=O)O)C(=O)N[C@@H](CCCCNC(=O)COCCOCCNC(=O)CCCCCCCCCCCCCCCCC(=O)O)C(N)=O)NC(=O)[C@H](Cc2c[nH]c3ccccc23)NC(=O)[C@H](CCCNC(=N)N)NC(=O)[C@@H](Cc2ccccc2)NC(=O)[C@H](Cc2c[nH]cn2)NC1=O` [Example 26, Ac-c[Glu-His-D-Phe-Arg-Trp-Orn]-Pro-Pro-Asp-Lys(biscarboxymethyl)-Lys({2-[2-(17-carboxyheptadecanoylamino)ethoxy]ethoxy}acetyl)-NH2] (Ac-EH[dF]RW[Orn]PPD[Lys(CH2CO2H)2]K([AEEA-C18 diacid])-NH2; lactam 1-6), the Ki on MC1 receptor is greater than 10 µM. For the same compound, the solubility in “physchem” (pH 5.5, Solubility Conc.) was 49 µM (≈ 99.7 µg/mL); in “physchem” (pH 5.8, Solubility Conc.) it was 325 µM (≈ 661 µg/mL); in “physchem” (pH 6.1, Solubility Conc.), 474 µM (≈ 964 µg/mL); in the series “physchem” (pH 6.5, Solubility Conc.) it was 478 µM (≈ 972 µg/mL); in “physchem” (pH 6.8, Solubility Conc.), 461 µM (≈ 938 µg/mL); in “physchem” (pH 7.1, Solubility Conc.) it was 476 µM (≈ 968 µg/mL). The solubility was found to be 482 µM (≈ 981 µg/mL) in “physchem” (pH 7.4, Solubility Conc.); 474 µM (≈ 964 µg/mL) in “physchem” (pH 7.7, Solubility Conc.); 478 µM (≈ 972 µg/mL) in “physchem” (pH 7.9, Solubility Conc.).
